Test results taken from US11291618B2, “Long wear skincare compositions” (priority 2019, dated 2022).
Where two headings read alike, the source gives them in different places. Values belong to the molecule of their own block, whether it stands above or below them.

What was measured:
[1] = Penetration test using a Strat-M membrane in a Franz Cell, UPLC analysis
Experimental: In this study, exemplary actives with different hydrophilicity value were chosen. P is the partition coefficient, where a smaller P (more negative log P) indicates greater hydrophilicity. A penetration test was performed using a Strat-M® membrane, and the collected sample was then analyzed by Ultra-Performance Liquid Chromatography (UPLC). In the receptor chamber of a Franz Cell, 5.00 mL of the incubation medium was added as the collection phase. A Strat-M® membrane was loaded on top of the receptor chamber. The donor chamber was then added on top of the Strat-M® membrane, 0.80 mL of the crème was added to the donor chamber. […] At the end of that time period, 1.00 mL of the collection phase was withdrawn from the sampling port as the sample solution. The sample solution was filtered through a 0.45 micrometer (μm) syringe filter and then added into a 2.0 milliliter (mL) High Performance Liquid Chromatography (HPLC) vial. ACQUITY H UPLC from the Waters Corporation was used to analyze the collected samples from the Franz Cell study.
The amount of actives in the collection phase were analyzed by UPLC following the method described above.

[2] = cited from earlier work

effect of inclusion of the copolymer blend on delivery of the active ([1]; with versus without copolymer blend): did not enhance the delivery
SMILES: NC(=O)c1cccnc1 [niacinamide]

SMILES: Cn1c(=O)c2c(ncn2C)n(C)c1=O [caffeine]
% of Penetration ([1]; Franz Cell, room temperature, 48 hours): greater than 100%

effect of inclusion of the copolymer blend on delivery of the active [1]: enhanced the delivery
SMILES: O=C1O[C@H]([C@@H](O)CO)C(O)=C1O[C@H]1O[C@H](CO)[C@@H](O)[C@H](O)[C@H]1O [ascorbyl glucoside]
Active Log P [2]: −4.79
